Data as given in paper PMC7471899 (2020).
“And” between values parts separate entries of the source, which are not always exact repeats. Identical values can stand only once.

Key:
[1] = test system: 22_TERRA (RNA, G4) AGGGUUAGGGUUAGGGUUAGGG; assay: fluorescent intercalator displacement (FID); conditions: 10 mM KCl + 10 mM potassium phosphate (20 mM K+); pH 7, room temperature; 0.25 µM RNA; 0.5 µM thiazole orange displaced
[2] = test system: 26_ds (RNA, hairpin) CAAUCGGAUCGAAUUCGAUCCGAUUG; assay: fluorescent intercalator displacement (FID); conditions: 10 mM KCl + 10 mM potassium phosphate (20 mM K+); pH 7, room temperature; 0.25 µM RNA; 0.5 µM thiazole orange displaced
[3] = test system: 22_TERRA_2Ap7 (RNA, G4, 2-aminopurine at 7) AGGGUUAGGGUUAGGGUUAGGG; assay: 2-aminopurine fluorescence quenching; conditions: 10 mM KCl + 10 mM potassium phosphate; pH 7.0, room temperature; 2.5 μM RNA; 2.5 or 5 μM compound
[4] = test system: 22_TERRA_2Ap13 (RNA, G4, 2-aminopurine at 13) AGGGUUAGGGUUAGGGUUAGGG; assay: 2-aminopurine fluorescence quenching; conditions: 10 mM KCl + 10 mM potassium phosphate; pH 7.0, room temperature; 2.5 μM RNA; 2.5 or 5 μM compound
[5] = test system: 22_TERRA_2Ap19 (RNA, G4, 2-aminopurine at 19) AGGGUUAGGGUUAGGGUUAGGG; assay: 2-aminopurine fluorescence quenching; conditions: 10 mM KCl + 10 mM potassium phosphate; pH 7.0, room temperature; 2.5 μM RNA; 2.5 or 5 μM compound

| Compound | DC50 [1] | DC50 [2] | binding [3] | binding [4] | binding [5] |
| --- | --- | --- | --- | --- | --- |
| C(=NC(COCc1ccc2oc3ccc(COCC(N=Cc4ccccn4)c4ccccc4)cc3c2c1)c1ccccc1)c1ccccn1.C(=NC(COCc1ccc2oc3ccc(COCC(N=Cc4ccccn4)c4ccccc4)cc3c2c1)c1ccccc1)c1ccccn1.C(=NC(COCc1ccc2oc3ccc(COCC(N=Cc4ccccn4)c4ccccc4)cc3c2c1)c1ccccc1)c1ccccn1.[Fe+2].[Fe+2] (stereo not shown) [5h] | 630 ± 40 nM and 640 ± 50 nM | 870 ± 60 nM and 890 ± 20 nM | – | – | – |
| C(=NC(COCc1cccc(COCC(N=Cc2ccccn2)c2ccccc2)c1)c1ccccc1)c1ccccn1.C(=NC(COCc1cccc(COCC(N=Cc2ccccn2)c2ccccc2)c1)c1ccccc1)c1ccccn1.C(=NC(COCc1cccc(COCC(N=Cc2ccccn2)c2ccccc2)c1)c1ccccc1)c1ccccn1.[Fe+2].[Fe+2] (stereo not shown) [5b] | 410 ± 40 nM and 270 ± 20 nM | 1470 ± 90 nM and 1580 ± 100 nM | yes | yes | yes |
| C(=NC(COCc1ccc(CCc2ccc(COCC(N=Cc3ccccn3)c3ccccc3)cc2)cc1)c1ccccc1)c1ccccn1.C(=NC(COCc1ccc(CCc2ccc(COCC(N=Cc3ccccn3)c3ccccc3)cc2)cc1)c1ccccc1)c1ccccn1.C(=NC(COCc1ccc(CCc2ccc(COCC(N=Cc3ccccn3)c3ccccc3)cc2)cc1)c1ccccc1)c1ccccn1.[Fe+2].[Fe+2] (stereo not shown) [5g] | 510 ± 30 nM and 570 ± 50 nM | 780 ± 40 nM and 770 ± 50 nM | – | – | – |
| C(=NC(COCc1ccc(Sc2ccc(COCC(N=Cc3ccccn3)c3ccccc3)cc2)cc1)c1ccccc1)c1ccccn1.C(=NC(COCc1ccc(Sc2ccc(COCC(N=Cc3ccccn3)c3ccccc3)cc2)cc1)c1ccccc1)c1ccccn1.C(=NC(COCc1ccc(Sc2ccc(COCC(N=Cc3ccccn3)c3ccccc3)cc2)cc1)c1ccccc1)c1ccccn1.[Fe+2].[Fe+2] (stereo not shown) [5e] | 680 ± 30 nM and 660 ± 20 nM | 910 ± 40 nM and 930 ± 30 nM | – | – | – |
| C(=NC(COCc1ccc(Oc2ccc(COCC(N=Cc3ccccn3)c3ccccc3)cc2)cc1)c1ccccc1)c1ccccn1.C(=NC(COCc1ccc(Oc2ccc(COCC(N=Cc3ccccn3)c3ccccc3)cc2)cc1)c1ccccc1)c1ccccn1.C(=NC(COCc1ccc(Oc2ccc(COCC(N=Cc3ccccn3)c3ccccc3)cc2)cc1)c1ccccc1)c1ccccn1.[Fe+2].[Fe+2] (stereo not shown) [5d] | 590 ± 10 nM and 610 ± 20 nM | 760 ± 30 nM and 820 ± 30 nM | – | – | – |
| C(=NC(COCc1ccc(-c2ccc(COCC(N=Cc3ccccn3)c3ccccc3)cc2)cc1)c1ccccc1)c1ccccn1.C(=NC(COCc1ccc(-c2ccc(COCC(N=Cc3ccccn3)c3ccccc3)cc2)cc1)c1ccccc1)c1ccccn1.C(=NC(COCc1ccc(-c2ccc(COCC(N=Cc3ccccn3)c3ccccc3)cc2)cc1)c1ccccc1)c1ccccn1.[Fe+2].[Fe+2] (stereo not shown) [5c] | 590 ± 40 nM and 690 ± 60 nM | 830 ± 40 nM and 900 ± 70 nM | – | – | – |
| C(=NC(COCc1ccc(COCC(N=Cc2ccccn2)c2ccccc2)cc1)c1ccccc1)c1ccccn1.C(=NC(COCc1ccc(COCC(N=Cc2ccccn2)c2ccccc2)cc1)c1ccccc1)c1ccccn1.C(=NC(COCc1ccc(COCC(N=Cc2ccccn2)c2ccccc2)cc1)c1ccccc1)c1ccccn1.[Fe+2].[Fe+2] (stereo not shown) [5a] | 470 ± 50 nM and 570 ± 60 nM | 720 ± 20 nM and 950 ± 80 nM | – | – | – |
| C(=NC(COCc1ccc(Cc2ccc(COCC(N=Cc3ccccn3)c3ccccc3)cc2)cc1)c1ccccc1)c1ccccn1.C(=NC(COCc1ccc(Cc2ccc(COCC(N=Cc3ccccn3)c3ccccc3)cc2)cc1)c1ccccc1)c1ccccn1.C(=NC(COCc1ccc(Cc2ccc(COCC(N=Cc3ccccn3)c3ccccc3)cc2)cc1)c1ccccc1)c1ccccn1.[Fe+2].[Fe+2] (stereo not shown) [5f] | 470 ± 50 nM and 600 ± 60 nM | 720 ± 70 nM and 800 ± 50 nM | – | – | – |
